Values quoted from earlier work, collected in paper PMC11220795 (Molecular Pharmaceutics, 2024).

settings: decadic logarithm of molar solubility in MCTs; ref Alsenz, J. and Kuentz, M., 2019; cited from earlier work

Molecule | log10 S [M]
COC1=CC(=O)C[C@@H](C)[C@]12Oc1c(Cl)c(OC)cc(OC)c1C2=O [griseofulvin] | -2.59
NS(=O)(=O)c1cc(C(=O)O)c(NCc2ccco2)cc1Cl [furosemide] | -3.18
C[C@]12CC[C@H]3[C@@H](CCC4=CC(=O)CC[C@@]43C)[C@@H]1CC[C@@H]2O [testosterone] | -1.56
CCN(CC)CC(=O)Nc1c(C)cccc1C [lidocaine] | -0.71
Nc1ccc(S(=O)(=O)Nc2ccnn2-c2ccccc2)cc1 [sulfaphenazole] | -3.03
CC(C(=O)O)c1ccc(-c2ccccc2)c(F)c1 (stereo not drawn) [flurbiprofen] | -0.86
CC(=O)Nc1ccc(O)cc1 [paracetamol] | -2.50
CC(=O)N1CCN(c2ccc(OCC3COC(Cn4ccnc4)(c4ccc(Cl)cc4Cl)O3)cc2)CC1 (stereo not drawn) [ketoconazole] | -2.90
COc1ccc(Cl)cc1C(=O)NCCc1ccc(S(=O)(=O)NC(=O)NC2CCCCC2)cc1 [glibenclamide] | -3.62

same assay, conditions: decadic logarithm of molar solubility in MCTs; ref Alskär, L.C., Porter, C.J. and Bergström, C.A., 2016; cited from earlier work

Molecule | log10 S [M]
CCC(C)n1ncn(-c2ccc(N3CCN(c4ccc(OCC5COC(Cn6cncn6)(c6ccc(Cl)cc6Cl)O5)cc4)CC3)cc2)c1=O (stereo not drawn) [itraconazole] | -3.59
CCCCN(CCCC)CCC(O)c1cc2c(Cl)cc(Cl)cc2c2cc(C(F)(F)F)ccc12 (stereo not drawn) [halofantrine] | -0.70
O=C(C1CCCCC1)N1CC(=O)N2CCc3ccccc3C2C1 (stereo not drawn) [praziquantel] | -1.38
CCOc1nc2cccc(C(=O)OC(C)OC(=O)OC3CCCCC3)c2n1Cc1ccc(-c2ccccc2-c2nnn[nH]2)cc1 (stereo not drawn) [candesartan cilexetil] | -2.93
bezafibrate | -3.22
CCOC(=O)C1=C(C)NC(C)=C(C(=O)OC)C1c1cccc(Cl)c1Cl (stereo not drawn) [felodipine] | -1.16
CCN(CC)C(=S)SSC(=S)N(CC)CC [disulfiram] | -0.73

same assay, conditions: decadic logarithm of molar solubility in MCTs; ref Wyttenbach, N. 2007, AAPS PharmSci360 Poster W4355; cited from earlier work

Molecule | log10 S [M]
Nc1ccc(S(=O)(=O)Nc2nccs2)cc1 [sulfathiazole] | -3.93

same assay, conditions: decadic logarithm of molar solubility in MCTs; ref Wyttenbach, N., Niederquell, A., Ectors, P. and Kuentz, M., 2022; cited from earlier work

Molecule | log10 S [M]
COc1ccccc1OCCNCC(O)COc1cccc2[nH]c3ccccc3c12 (stereo not drawn) [carvedilol] | -2.46
